Measurements taken from patent publication US7429679B2, “Sulphonic acid salt of sibutramine” (CJ Corporation, priority 2005, dated 2008).
Converted amounts (≈) assume the structure as drawn. “Also recorded” adds a separate entry of the source. Read-outs that look alike come from different tables or passages of the source.

What was measured:
Assay type in all cases: physicochemical
[1] = Evaluation of hygroscopicity: water content (K.F.) after exposure to humid conditions at 25° C.; settings: for change in water content under humid conditions (in words): relative humidities of 10%, 75% and 90%, up to one week or longer
Description: The sulphonic acid salts of sibutramine, prepared in Examples 1 to 5, and sibutramine hydrochloride monohydrate were exposed to humid conditions (10%, 75% and 90% RH) at 25° C. for a period of three days or one week. Then, the water content (K.F. water %) of the samples was measured.

[2] = Evaluation of light stability: exposure to fluorescence at 25° C., ICH light stability test chamber, content by HPLC; design: content (HPLC) in light stability test: reference not given here
Description: A light stability test was performed as follows. The sulphonic acid salts of sibutramine, prepared in Examples 1 to 5, and sibutramine hydrochloride monohydrate were exposed to fluorescence at 25° C. using a light stability test chamber suitable for the ICH guideline, for storage periods of 1, 2 and 4 weeks.

[3] = Evaluation of solubility in distilled water and aqueous solutions having various pH values
[4] = Evaluation of stability: stringent 60° C. heat treatment, content by HPLC; design: content (HPLC) upon 60° C. heat treatment: reference not given here
Description: The sulphonic acid salts of sibutramine, prepared in Examples 1 to 5, and sibutramine hydrochloride monohydrate were exposed to a stringent 60° C. heat treatment.
HPLC was performed under the following conditions.
Wavelength of UV detection: 225 nm
Column: octadecyl silica gel, C18 (4.6×150 mm, 5 μm)
Mobile phase: an aqueous solution of ammonium phosphate monohydride (0.05 M) (adjusted to pH 6 with phosphoric acid): acetonitrile=35:65

[5] = distilled water (DW) and buffer solutions at various pH values
[6] = 10% relative humidity, 25° C., 1 week
[7] = 10% relative humidity, 25° C., 3 days
[8] = 75% relative humidity, 25° C., 1 week
[9] = 75% relative humidity, 25° C., 3 days
[10] = 90% relative humidity, 25° C., 1 week
[11] = 90% relative humidity, 25° C., 3 days

CC(C)CC(N(C)C)C1(c2ccc(Cl)cc2)CCC1 (centres unmarked) [Besylate, sibutramine besylate]
water content (K.F. water %) ([1]; 10% relative humidity, 25° C., 1 week, listed as Bensylate): 0.02% | water content (K.F. water %) ([1]; 10% relative humidity, 25° C., 3 days, listed as Bensylate): 0.02% | water content (K.F. water %) ([1]; 75% relative humidity, 25° C., 1 week, listed as Bensylate): 0.05% | water content (K.F. water %) ([1]; 75% relative humidity, 25° C., 3 days, listed as Bensylate): 0.02% | water content (K.F. water %) ([1]; 90% relative humidity, 25° C., 1 week, listed as Bensylate): 0.05% | water content (K.F. water %) ([1]; 90% relative humidity, 25° C., 3 days, listed as Bensylate): 0.05% | water content (K.F. water %) ([1]; Initial, listed as Bensylate): 0.02% | change in water content under humid conditions (in words) [1]: almost no change in water content | content (HPLC) in light stability test ([2]; Initial): 1.000 | content (HPLC) in light stability test ([2]; fluorescence, 25° C., 1 wk): 1.000 | content (HPLC) in light stability test ([2]; fluorescence, 25° C., 2 wks): 0.999 | content (HPLC) in light stability test ([2]; fluorescence, 25° C., 4 wks): 0.999 | solubility ([3]; DW (distilled water)): 19.18 mg/mL | solubility ([3]; aqueous buffer, distilled water (DW) and buffer solutions at various pH values, read-out: solubility against the solubility sufficient for preparing pharmaceutical formulations such as capsules): > 3 mg/mL | solubility compared to sibutramine hydrochloride monohydrate (in words) [3, 5]: slightly lower solubility than sibutramine hydrochloride monohydrate | solubility compared to sibutramine hydrochloride monohydrate (in words) ([3]; distilled water (DW) and buffer solutions at various pH values, listed as besylate): slightly low solubility compared to sibutramine hydrochloride monohydrate | solubility ([3]; pH 1.2): 15.18 mg/mL | solubility ([3]; pH 4.0): 8.51 mg/mL | solubility ([3]; pH 5.3): 5.72 mg/mL | solubility ([3]; pH 6.8): 21.86 mg/mL | solubility ([3]; pH 7.4): 7.01 mg/mL | content (HPLC) upon 60° C. heat treatment ([4]; 60° C., 1 wk): 1.000 | content (HPLC) upon 60° C. heat treatment ([4]; 60° C., 2 wks): 0.999 | content (HPLC) upon 60° C. heat treatment ([4]; 60° C., 4 wks): 1.000 | content (HPLC) upon 60° C. heat treatment ([4]; Initial): 1.000

CC(C)CC(N(C)C)C1(c2ccc(Cl)cc2)CCC1.CC1(C)C2CCC1(CS(=O)(=O)O)C(=O)C2 (centres unmarked) [Camsylate, sibutramine camsylate]
water content (K.F. water %) [1, 6]: 0.08% | water content (K.F. water %) [1, 7]: 0.09% | water content (K.F. water %) [1, 8]: 0.06% | water content (K.F. water %) [1, 9]: 0.06% | water content (K.F. water %) [1, 10]: 0.12% | water content (K.F. water %) [1, 11]: 0.08% | water content (K.F. water %) ([1]; Initial): 0.09% | change in water content under humid conditions (in words) [1]: almost no change in water content | content (HPLC) in light stability test ([2]; Initial): 1.000 | content (HPLC) in light stability test ([2]; fluorescence, 25° C., 1 wk): 0.999 | content (HPLC) in light stability test ([2]; fluorescence, 25° C., 2 wks): 1.000 | content (HPLC) in light stability test ([2]; fluorescence, 25° C., 4 wks): 0.999 | solubility ([3]; DW (distilled water)): 23.67 mg/mL | solubility ([3]; pH 1.2): 16.18 mg/mL | solubility ([3]; pH 4.0): 16.75 mg/mL | solubility ([3]; pH 5.3): 7.45 mg/mL | solubility ([3]; pH 6.8): 29.83 mg/mL | solubility ([3]; pH 7.4): 13.97 mg/mL | content (HPLC) upon 60° C. heat treatment ([4]; 60° C., 1 wk): 1.000 | content (HPLC) upon 60° C. heat treatment ([4]; 60° C., 2 wks): 0.999 | content (HPLC) upon 60° C. heat treatment ([4]; 60° C., 4 wks): 0.999 | content (HPLC) upon 60° C. heat treatment ([4]; Initial): 1.000

CC(C)CC(N(C)C)C1(c2ccc(Cl)cc2)CCC1 (centres unmarked) [Edisylate, sibutramine edisylate]
water content (K.F. water %) [1, 6]: 0.05% | water content (K.F. water %) [1, 7]: 0.06% | water content (K.F. water %) [1, 8]: 0.05% | water content (K.F. water %) [1, 9]: 0.04% | water content (K.F. water %) [1, 10]: 0.05% | water content (K.F. water %) [1, 11]: 0.04% | water content (K.F. water %) ([1]; Initial): 0.05% | change in water content under humid conditions (in words) [1]: almost no change in water content | content (HPLC) in light stability test ([2]; Initial): 1.000 | content (HPLC) in light stability test ([2]; fluorescence, 25° C., 1 wk): 1.000 | content (HPLC) in light stability test ([2]; fluorescence, 25° C., 2 wks): 0.999 | content (HPLC) in light stability test ([2]; fluorescence, 25° C., 4 wks): 1.000 | solubility ([3]; DW (distilled water)): 25.98 mg/mL (≈ 92.8 mM) | solubility compared to sibutramine hydrochloride monohydrate (in words) [3, 5]: slightly low solubility compared to sibutramine hydrochloride monohydrate; also recorded: slightly lower solubility than sibutramine hydrochloride monohydrate | solubility ([3]; pH 1.2): 10.57 mg/mL (≈ 37.8 mM) | solubility ([3]; pH 4.0): 9.78 mg/mL (≈ 34.9 mM) | solubility ([3]; pH 5.3): 5.68 mg/mL (≈ 20.3 mM) | solubility ([3]; pH 6.8): 19.44 mg/mL (≈ 69.5 mM) | solubility ([3]; pH 7.4): 8.04 mg/mL (≈ 28.7 mM) | content (HPLC) upon 60° C. heat treatment ([4]; 60° C., 1 wk): 0.999 | content (HPLC) upon 60° C. heat treatment ([4]; 60° C., 2 wks): 1.000 | content (HPLC) upon 60° C. heat treatment ([4]; 60° C., 4 wks): 0.999 | content (HPLC) upon 60° C. heat treatment ([4]; Initial): 1.000

CC(C)CC(N(C)C)C1(c2ccc(Cl)cc2)CCC1 (centres unmarked) [Esylate hemihydrate, sibutramine esylate hemihydrate]
water content (K.F. water %) ([1]; 10% relative humidity, 25° C., 1 week, hemihydrate): 2.37% | water content (K.F. water %) ([1]; 10% relative humidity, 25° C., 3 days, hemihydrate): 2.35% | water content (K.F. water %) ([1]; 75% relative humidity, 25° C., 1 week, hemihydrate): 2.35% | water content (K.F. water %) ([1]; 75% relative humidity, 25° C., 3 days, hemihydrate): 2.29% | water content (K.F. water %) ([1]; 90% relative humidity, 25° C., 1 week, hemihydrate): 2.40% | water content (K.F. water %) ([1]; 90% relative humidity, 25° C., 3 days, hemihydrate): 2.44% | water content (K.F. water %) ([1]; Initial, hemihydrate): 2.37% | change in water content under humid conditions (in words) [1]: almost no change in water content | content (HPLC) in light stability test ([2]; fluorescence, 25° C., 1 wk, hemihydrate): 0.999 | content (HPLC) in light stability test ([2]; fluorescence, 25° C., 2 wks, hemihydrate): 1.000 | content (HPLC) in light stability test ([2]; fluorescence, 25° C., 4 wks, hemihydrate): 0.999 | solubility ([3]; DW (distilled water), hemihydrate): 84.10 mg/mL | solubility compared to sibutramine hydrochloride monohydrate (in words) ([3]; distilled water (DW) and buffer solutions at various pH values, hemihydrate): excellent solubility compared to sibutramine hydrochloride monohydrate | solubility relative to sibutramine hydrochloride ([3]; distilled water and aqueous solutions of pH 1.2, pH 4.0, pH 5.3, pH 6.8 and pH 7.4): two times-higher than the solubility of sibutramine hydrochloride | solubility ([3]; pH 1.2, hemihydrate): 70.65 mg/mL | solubility ([3]; pH 4.0, hemihydrate): 26.42 mg/mL | solubility ([3]; pH 5.3, hemihydrate): 19.53 mg/mL | solubility ([3]; pH 6.8, hemihydrate): 69.42 mg/mL | solubility ([3]; pH 7.4, hemihydrate): 27.61 mg/mL | content (HPLC) upon 60° C. heat treatment ([4]; 60° C., 1 wk, hemihydrate): 1.000 | content (HPLC) upon 60° C. heat treatment ([4]; 60° C., 2 wks, hemihydrate): 0.999 | content (HPLC) upon 60° C. heat treatment ([4]; 60° C., 4 wks, hemihydrate): 0.999
